Columns and labels:
Format in all cases: cell-based, human
Caco-2 = assay: Autophagy induction, monodansylcadaverine (MDC) fluorescence; conditions: compound at IC50, 24 h, vs control
Method: Autophagy induction in cells treated with the tested drugs was determined by measuring Monodansylcadaverine (MDC; Sigma-Aldrich; St. Louis, MO, USA) fluorescence according to a modified method described by Vázquez. […] In the cell, MDC accumulates in lipid-rich cell membranes. It has been shown that MDC can be used as a dye for detecting autophagy, as it accumulates in autophagolysosomes as a result of interaction with membrane lipids.
Cells were seeded in black 96-well fluorometric microplates at a density of 10 × 10^3 cells/mL. […] Following compound incubation, the medium was removed, and the cell monolayers were washed twice with HBSS (140 mM NaCl, 5 mM KCl, 0.8 mM MgCl2, 1.8 mM CaCl2, 1 mM Na2HPO4, 10 mM HEPES, and 1% glucose). A solution of MDC at a final concentration of 50 μM was added to each well and incubated in a CO2 cell culture incubator at 37 °C for 15 min. After incubation with MDC, the probe was removed, and the cells were lysed with 50 μL of lysis buffer (10 mM TRIS-HCl; pH 8 containing 0.1% Triton X-100). After lysis, fluorescence was measured at an excitation wavelength of λex = 390 nm and an emission wavelength of λem = 460 nm using a Perkin-Elmer LS-5B spectrofluorometer (Waltham, MA, USA). In order to normalize the number of cells in individual samples, the amount of DNA was determined by adding 50 μL of EB (final concentration 0.2 mM) to each well after measuring the MCB fluorescence and measuring the EB fluorescence at an excitation wavelength of λex = 530 nm and an emission wavelength of λem = 590 nm. The results were calculated as the ratio of MDC fluorescence to EB fluorescence.

SW620 [1] = assay: Alkaline comet assay (DNA damage); conditions: compound at IC50, 12 h, vs control group
Text: Single-cell gel electrophoresis, also known as the comet assay, is a rapid and sensitive method for assessing DNA damage at the single-cell level. Cells are lysed and electrophoresed. Both single-strand and double-strand breaks are detected under alkaline conditions. The released DNA is denatured and moves in the agarose gel toward the anode during electrophoresis. The image, obtained after staining with the fluorescent dye 4′,6-diamidino-2-phenylindole (DAPI), resembles a “comet” with a distinct “head” (intact DNA) and “tail” (damaged DNA fragments). The length of the tail depends on the number and size of the broken DNA strands.
Cells (1 × 10^3) were seeded in 35 mm dishes and cultured in the medium for 24 h to attain the logarithmic growth phase. […] Quantitative analysis of the DNA comet image of preparations stained with DAPI solution (2 μg/L) was performed using a camera connected to a fluorescence microscope. The comet DNA analysis was performed under a Nikon Eclipse fluorescence microscope (Nikon, Tokyo, Japan) equipped with a 4910 COHU video camera (Cohu, Inc., San Diego, CA, USA) and a computer with Lucia-Comet v. […] Each time, from each preparation, 100 randomly selected comets were counted. The extent of DNA damage is quantified by measuring the length of the comet tail and the amount of DNA it contains. […]

SW620 [2] = assay: MTT test after pre-incubation with antioxidants NAC or Trolox; conditions: vs cells without antioxidant pre-incubation
Method: Moreover, the elevation of ROS levels was accompanied by a decrease in intracellular GSH. To investigate the role of ROS in the cytotoxic activity of flavonoid derivatives against cancer cells, LoVo cancer cells were pre-treated with antioxidants, NAC or a water-soluble derivative of vitamin E (Trolox), for 1 h before exposure to the studied compounds. Subsequently, the MTT assay was performed.
To elucidate the involvement of ROS in the cytotoxic effects of the investigated compounds, cells were pre-treated with the vitamin E (Trolox, Sigma-Aldrich, St. Louis, MO, USA) or N-Acetylcysteine (NAC) antioxidants for 1 h. Cells were seeded into sterile, colorless 96-well microplates at a density of 6–8 × 10^3 cells/mL, contingent upon the cell line. Following a 24 h culture period, Trolox or NAC was added at a final concentration of 50 μM and 3 mM, respectively. After 1 h of incubation, the antioxidants were removed by washing, and test compounds were administered at appropriate concentrations (10–200 μM) in fresh cell culture medium, followed by a 24 h incubation. The MTT assay was then conducted under identical experimental conditions, as detailed in Section 2.2.

## O=C1/C(=C/c2ccccc2)COc2ccccc21 [Compound 1]
Caco-2
  Increase in MDC fluorescence intensity (autophagy): 25%

## COc1cccc(/C=C2/C(=O)c3ccccc3OC2c2ccccc2)c1 (stereo not drawn) [Compound 3]
SW620 [1]
  Increase in DNA content in the comet tail: approximately 40%

## O=C1/C(=C/c2ccccc2)C(c2ccccc2)Oc2ccccc21 (stereo not drawn) [Compound 5]
SW620 [2]
  Change of the IC50 value after pre-incubation with Trolox: Statistically significant increases in the IC50 value

From publication PMC11641365, “Evaluation of In Vitro Biological Activity of Flavanone/Chromanone Derivatives: Molecular Analysis of Anticancer Mechanisms in Colorectal Cancer” (International Journal of Molecular Sciences, 2024)
